# According to patent US7550469B2, “Heterocyclic amide derivatives and their use as dopamine D3 receptor ligands” (Aventis Pharmaceuticals Inc., priority 2001, dated 2009):
# pKi: −log10 of the molar value. Where two headings read alike, the source gives them in different places.
# Target: T1, cloned human dopamine D3 receptors (Homo sapiens, UniProt P35462)
# T1 construct: expressed in transfected cells; membrane homogenate
# Assay: [N-Methyl-3H]Spiroperidol binding to cloned human dopamine D3 receptors (Protocol 1)
# Summary of the method: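 Radioligand displacement with [N-methyl-3H]spiroperidol used a physiological-salt Tris buffer (0.05 M, pH 7.7; NaCl 120 mM, KCl 5 mM, CaCl2 2 mM, MgCl2 1 mM) and membranes of a high-expressing stable CHO clone carrying human D3. Total ligand concentration came from measured added CPM; 0.1% ascorbic acid was optional for oxidizable compounds.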
# [1] = the 14th table, read-out: D3 Ki
# [2] = the 21st table, read-out: D3 Ki
# T1 sequence (P35462 whole entry): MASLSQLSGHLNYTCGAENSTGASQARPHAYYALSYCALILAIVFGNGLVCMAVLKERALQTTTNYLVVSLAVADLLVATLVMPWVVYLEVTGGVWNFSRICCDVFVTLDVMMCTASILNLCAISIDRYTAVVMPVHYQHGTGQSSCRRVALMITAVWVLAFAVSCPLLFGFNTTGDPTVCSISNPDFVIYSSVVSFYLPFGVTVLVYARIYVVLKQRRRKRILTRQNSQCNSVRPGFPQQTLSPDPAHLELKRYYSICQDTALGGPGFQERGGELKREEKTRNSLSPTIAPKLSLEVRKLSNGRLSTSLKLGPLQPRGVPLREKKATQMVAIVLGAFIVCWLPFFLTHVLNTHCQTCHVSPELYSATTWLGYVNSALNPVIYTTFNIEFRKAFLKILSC
Structure (SMILES),pKi (read-out: D3K1),pKi [1],further results
O=C(NCCCCCCN1CCN(c2csc3cc(C(F)(F)F)ccc23)CC1)c1cccc2[nH]ccc12 [compound 826741],8.01,8.01,–
O=C(NCCCCCCN1CCN(c2csc3cc(C(F)(F)F)ccc23)CC1)c1ccc2cc[nH]c2c1 [compound 826742],8.77,8.77,–
O=C(NCCCCCCN1CCN(c2csc3cc(C(F)(F)F)ccc23)CC1)c1n[nH]c2ccccc12 [compound 826743],7.82,7.82,–
O=C(NCCCCCCN1CCN(c2csc3cc(C(F)(F)F)ccc23)CC1)c1cccs1 [compound 826746],9.10,9.10,–
O=C(NCCCCCCN1CCN(c2csc3cc(C(F)(F)F)ccc23)CC1)c1cccc(Cl)c1 [compound 826747],9.92,9.92,–
COc1cc(OC)cc(C(=O)NCCCCCCN2CCN(c3csc4cc(C(F)(F)F)ccc34)CC2)c1 [compound 826748],8.31,8.31,–
O=C(NCCCCCCN1CCN(c2csc3cc(C(F)(F)F)ccc23)CC1)c1ccc(OC(F)(F)F)cc1 [compound 826749],8.06,8.06,–
O=C(NCCCCCCN1CCN(c2csc3cc(C(F)(F)F)ccc23)CC1)c1cccc2ccccc12 [compound 826750],8.49,8.49,–
O=C(NCCCCCCN1CCN(c2csc3cc(C(F)(F)F)ccc23)CC1)c1ccc2ccccc2c1 [compound 826751],8.55,8.55,–
O=C(NCCCCCCN1CCN(c2csc3cc(C(F)(F)F)ccc23)CC1)c1cccc(C(F)(F)F)c1 [compound 826752],7.85,7.85,–
Cc1ccccc1C(=O)NCCCCCCN1CCN(c2csc3cc(C(F)(F)F)ccc23)CC1 [compound 826753],8.36,8.36,–
O=C(NCCCCCCN1CCN(c2csc3cc(C(F)(F)F)ccc23)CC1)c1cc2ccccc2s1 [compound 826754],8.49,8.49,–
O=C(NCCCCN1CCCN(c2csc3cc(F)ccc23)CC1)c1c2ccccc2cc2ccccc12 [compound 826762],–,–,"pKi (Table 2, read-out: D3K1): 7.24; pKi (the 16th table, read-out: D3 Ki): 7.24"
O=C(NCCCCCN1CCN(c2csc3cc(C(F)(F)F)ccc23)CC1)c1cccs1 [compound 826764],8.11,8.11,–
O=C(NCCCCCN1CCN(c2csc3cc(C(F)(F)F)ccc23)CC1)c1cccc(Cl)c1 [compound 826765],7.64,7.64,–
COc1cc(OC)cc(C(=O)NCCCCCN2CCN(c3csc4cc(C(F)(F)F)ccc34)CC2)c1 [compound 826766],7.96,7.96,–
O=C(NCCCCCN1CCN(c2csc3cc(C(F)(F)F)ccc23)CC1)c1ccc(OC(F)(F)F)cc1 [compound 826767],7.85,7.85,–
O=C(NCCCCCN1CCN(c2csc3cc(C(F)(F)F)ccc23)CC1)c1cccc2ccccc12 [compound 826768],7.64,7.64,–
O=C(NCCCCCN1CCN(c2csc3cc(C(F)(F)F)ccc23)CC1)c1ccc2ccccc2c1 [compound 826769],8.15,8.15,–
O=C(NCCCCCN1CCN(c2csc3cc(C(F)(F)F)ccc23)CC1)c1cccc(C(F)(F)F)c1 [compound 826770],7.85,7.85,–
Cc1ccccc1C(=O)NCCCCCN1CCN(c2csc3cc(C(F)(F)F)ccc23)CC1 [compound 826771],8.17,8.17,–
O=C(NCCCCCN1CCN(c2csc3cc(C(F)(F)F)ccc23)CC1)c1cccc(F)c1 [compound 826772],8.11,8.11,–

Structure (SMILES),pKi (read-out: D3K1),pKi [1],further results
O=C(NCCCCCN1CCN(c2csc3cc(C(F)(F)F)ccc23)CC1)c1cc2ccccc2s1 [compound 826773],7.96,7.96,–
O=C(NCCCCCN1CCN(c2csc3cc(F)ccc23)CC1)c1cccs1 [compound 826774],–,8.08,–
O=C(NCCCCCN1CCN(c2csc3cc(F)ccc23)CC1)c1cccc(Cl)c1 [compound 826775],–,8.20,–
COc1cc(OC)cc(C(=O)NCCCCCN2CCN(c3csc4cc(F)ccc34)CC2)c1 [compound 826776],–,8.90,–
O=C(NCCCCCN1CCN(c2csc3cc(F)ccc23)CC1)c1ccc(OC(F)(F)F)cc1 [compound 826777],–,8.34,–
O=C(NCCCCCN1CCN(c2csc3cc(F)ccc23)CC1)c1cccc2ccccc12 [compound 826778],–,8.56,–
O=C(NCCCCCN1CCN(c2csc3cc(F)ccc23)CC1)c1ccc2ccccc2c1 [compound 826779],–,9.01,–
O=C(NCCCCCN1CCN(c2csc3cc(F)ccc23)CC1)c1cccc(C(F)(F)F)c1 [compound 826780],–,8.35,–
Cc1ccccc1C(=O)NCCCCCN1CCN(c2csc3cc(F)ccc23)CC1 [compound 826781],–,8.00,–
O=C(NCCCCCN1CCN(c2csc3cc(F)ccc23)CC1)c1cccc(F)c1 [compound 826782],–,8.34,–
O=C(NCCCCCN1CCN(c2csc3cc(F)ccc23)CC1)c1cc2ccccc2s1 [compound 826783],–,8.57,–
O=C(NCCCCCN1CCN(c2csc3cc(F)ccc23)CC1)c1cc2ccccc2[nH]1 [compound 826784],–,8.48,–
COc1ccc2[nH]c(C(=O)NCCCCCN3CCN(c4csc5cc(F)ccc45)CC3)cc2c1 [compound 826785],–,8.84,–
Cn1c(C(=O)NCCCCCN2CCN(c3csc4cc(F)ccc34)CC2)cc2ccccc21 [compound 826786],–,8.96,–
O=C(NCCCCCN1CCN(c2csc3cc(F)ccc23)CC1)c1c[nH]c2ccccc12 [compound 826787],–,8.92,–
O=C(NCCCCCN1CCN(c2csc3cc(F)ccc23)CC1)c1ccc2cc[nH]c2c1 [compound 826790],–,8.25,–
O=C(NCCCCCN1CCN(c2csc3cc(F)ccc23)CC1)c1n[nH]c2ccccc12 [compound 826791],–,7.92,–
CC1=C(C(=O)NCCCCCN2CCN(c3csc4cc(F)ccc34)CC2)Cc2ccccc21 [compound 826792],–,8.41,–
O=C(NCCCCCN1CCN(c2csc3cc(F)ccc23)CC1)c1cc2ccccc2o1 [compound 826793],–,8.43,–
O=C(NCCCCCN1CCN(c2csc3cc(C(F)(F)F)ccc23)CC1)c1cc2ccccc2[nH]1 [compound 826794],7.95,7.95,–
COc1ccc2[nH]c(C(=O)NCCCCCN3CCN(c4csc5cc(C(F)(F)F)ccc45)CC3)cc2c1 [compound 826795],7.86,7.86,–
Cn1c(C(=O)NCCCCCN2CCN(c3csc4cc(C(F)(F)F)ccc34)CC2)cc2ccccc21 [compound 826796],7.83,7.83,–

Structure (SMILES),pKi (read-out: D3K1),pKi [1],further results
O=C(NCCCCCN1CCN(c2csc3cc(C(F)(F)F)ccc23)CC1)c1c[nH]c2ccccc12 [compound 826797],7.44,7.44,–
O=C(NCCCCCN1CCN(c2csc3cc(C(F)(F)F)ccc23)CC1)c1cccc2[nH]ccc12 [compound 826798],8.19,8.19,–
O=C(NCCCCCN1CCN(c2csc3cc(C(F)(F)F)ccc23)CC1)c1ccc2[nH]ccc2c1 [compound 826799],8.19,8.19,–
O=C(NCCCCCN1CCN(c2csc3cc(C(F)(F)F)ccc23)CC1)c1ccc2cc[nH]c2c1 [compound 826800],7.57,7.57,–
O=C(NCCCCCN1CCN(c2csc3cc(C(F)(F)F)ccc23)CC1)c1n[nH]c2ccccc12 [compound 826801],7.30,7.30,–
CC1=C(C(=O)NCCCCCN2CCN(c3csc4cc(C(F)(F)F)ccc34)CC2)Cc2ccccc21 [compound 826802],–,7.77,"pKi (Table 2, read-out: D3K1): 7.77"
O=C(NCCCCCN1CCN(c2csc3cc(C(F)(F)F)ccc23)CC1)c1cc2ccccc2o1 [compound 826803],–,7.77,"pKi (Table 2, read-out: D3K1): 7.77"
C[C@@H]1CN(c2csc3cc(C(F)(F)F)ccc23)C[C@H](C)N1CCCCNC(=O)c1ccc(F)cc1 [compound 826929],–,–,pKi [2]: 6.66
COc1ccc(C(=O)NCCCCN2[C@H](C)CN(c3csc4cc(C(F)(F)F)ccc34)C[C@@H]2C)cc1OC [compound 826930],–,–,pKi [2]: 7.13
Cc1ccccc1C(=O)NCCCCN1[C@H](C)CN(c2csc3cc(C(F)(F)F)ccc23)C[C@@H]1C [compound 826931],–,–,pKi [2]: 6.66
COc1cccc(C(=O)NCCCCN2[C@H](C)CN(c3csc4cc(C(F)(F)F)ccc34)C[C@@H]2C)c1 [compound 826932],–,–,pKi [2]: 6.42
C[C@@H]1CN(c2csc3cc(C(F)(F)F)ccc23)C[C@H](C)N1CCCCNC(=O)c1ccc(-c2ccccc2)cc1 [compound 826933],–,–,pKi [2]: 6.56
C[C@@H]1CN(c2csc3cc(C(F)(F)F)ccc23)C[C@H](C)N1CCCCNC(=O)c1ccc(C(C)(C)C)cc1 [compound 826934],–,–,pKi [2]: 6.64
C[C@@H]1CN(c2csc3cc(C(F)(F)F)ccc23)C[C@H](C)N1CCCCNC(=O)c1cnc2ccccc2n1 [compound 826935],–,–,pKi [2]: 6.57
C[C@@H]1CN(c2csc3cc(C(F)(F)F)ccc23)C[C@H](C)N1CCCCNC(=O)c1ccc(C(F)(F)F)cc1 [compound 826936],–,–,pKi [2]: 7.02
C[C@@H]1CN(c2csc3cc(C(F)(F)F)ccc23)C[C@H](C)N1CCCCNC(=O)c1ccncc1 [compound 826937],–,–,pKi [2]: 6.60
C[C@@H]1CN(c2csc3cc(C(F)(F)F)ccc23)C[C@H](C)N1CCCCNC(=O)c1cccnc1Cl [compound 826938],–,–,pKi [2]: 6.76
C[C@@H]1CN(c2csc3cc(F)ccc23)C[C@H](C)N1CCCCNC(=O)c1ccc(F)cc1 [compound 826939],–,–,pKi [2]: 7.72
COc1ccc(C(=O)NCCCCN2[C@H](C)CN(c3csc4cc(F)ccc34)C[C@@H]2C)cc1OC [compound 826940],–,–,pKi [2]: 7.31
Cc1ccccc1C(=O)NCCCCN1[C@H](C)CN(c2csc3cc(F)ccc23)C[C@@H]1C [compound 826941],–,–,pKi [2]: 7.44
COc1cccc(C(=O)NCCCCN2[C@H](C)CN(c3csc4cc(F)ccc34)C[C@@H]2C)c1 [compound 826942],–,–,pKi [2]: 7.24
